# Measured values: US11072584B2, “Carbon monoxide releasing norbornenone compounds” (OTAGO INNOVATION LIMITED, priority 2015, dated 2021)
# Counter-ions that a name gives are not always drawn.
# What was measured:
# [1] = tested on: MDCK cells; assay: crystal violet cell adhesion (CVCA) cell toxicity assay; details: Canis lupus familiaris, MDCK, read-out: EC50 (μM), Active Compound
# [2] = Solubility in water; type: physicochemical; details: for solubility (in words): water or physiological buffers; for solubility: water, 21° C.
solubility (in words) [2],solubility [2],melting point,SMILES,EC50 [1]
decreased solubility,5000 µg/mL,–,"CC12C(=O)C(C)(C(c3ccccc3)=C1c1ccccc1)C1(Br)C(=O)N(CCC(=O)NC(CO)(CO)CO)C(=O)C21 (stereo not shown) [oCOm-24, N-(2-Hydroxy-1,1-bis(hydroxymethyl)ethyl)-3-(3a-bromo-4,7-dimethyl-1,3,8-trioxo-5,6-diphenyl-3a,4,7,7a-tetrahydro-1H-4,7-methanoisoindol-2(2H)-yl)propanamide]",> 100 µM
–,–,182 to 184 °C,"CC12C(=O)C(C)(C(c3ccccc3)=C1c1ccccc1)C1(Cl)C(=O)N(c3ccccc3)C(=O)C21 (stereo not shown) [oCOm-2, 3a-Chloro-3a,4,7,7a-tetrahydro-4,7-dimethyl-2,5,6-triphenyl-4,7-methano-1H-isoindole-1,3,8(2H)-trione]",–
–,–,> 250 °C,"Cc1c2c(c(C)c(-c3ccccc3)c1-c1ccccc1)C(=O)N(c1ccc(O)c([N+](=O)[O-])c1)C2=O [BP-11, 2-(4-Hydroxy-3-nitrophenyl)-4,7-dimethyl-5,6-diphenyl-1H-isoindole-1,3(2H)-dione]",–
–,–,193 °C,"CC12C(=O)C(C)(C(c3ccccc3)=C1c1ccccc1)C1(Sc3ccccc3)C(=O)N(c3ccccc3)C(=O)C21 (stereo not shown) [oCOm-4, 3a-Phenylthio-3a,4,7,7a-tetrahydro-4,7-dimethyl-2,5,6-triphenyl-4,7-methano-1H-isoindole-1,3,8(2H)-trione]",–
decreased water solubility,900 µg/mL,–,"CC12C(=O)C(C)(C(c3ccccc3)=C1c1ccccc1)C1(Br)C(=O)N(Cc3cn(CCOC4OC(CO)C(O)C(O)C4O)nn3)C(=O)C21 [oCOm-49, 3a-Bromo-3a,4,7,7a-tetrahydro-4,7-dimethyl-2-[[1-(2-α-D-mannopyranosyloxy)ethyl]-1H-1,2,3-triazol-4yl]methyl-5,6-diphenyl-4,7-methano-1H-isoindole-1,3,8(2H)-trione]",> 200 µM
water soluble,–,–,"CC12C(=O)C(C)(C(c3ccccc3)=C1c1ccccc1)C1(Br)C(=O)N(CCCC[C@H](N)C(=O)O)C(=O)C21 (stereo partly drawn) [oCOm-28, (2S)-2-Amino-6-(3a-bromo-4,7-dimethyl-1,3,8-trioxo-5,6-diphenyl-1,3,3a,4,7,7a-hexahydro-2H-4,7-methanoisoindol-2-yl)hexanoic Acid Trifluoroacetic Acid Salt]",> 100 µM
–,–,113 to 115 °C,"CC(=O)OC[C@H]1O[C@@H](Oc2ccc(N3C(=O)c4c(C)c(-c5ccccc5)c(-c5ccccc5)c(C)c4C3=O)cc2)[C@H](OC(C)=O)[C@@H](OC(C)=O)[C@@H]1OC(C)=O [BP-14, N-(4-O-(2,3,4,6-tetra-O-acetyl-β-D-glucopyranosyl)phenyl)-3,6-dimethyl-4,5-diphenyl-3,6-phthalimide]",–
–,–,207 °C (dec.),"CC12C(=O)C(C)(C(c3ccccc3)=C1c1ccccc1)C1(Br)C(=O)N(c3ccc(O)c([N+](=O)[O-])c3)C(=O)C21 (stereo not shown) [oCOm-11, 3a-Bromo-3a,4,7,7a-tetrahydro-4,7-dimethyl-2-(4-hydroxy-3-nitrophenyl)-5,6-diphenyl-4,7-methano-1H-isoindole-1,3,8(2H)-trione]",–

SMILES,solubility (in words) [2],solubility [2],melting point,EC50 [1]
"CC(=O)OCCN1C(=O)c2c(C)c(-c3ccccc3)c(-c3ccccc3)c(C)c2C1=O [BP-16, 4,7-Dimethyl-2-(2-acetoxyethyl)-5,6-diphenyl-1H-isoindole-1,3(2H)-dione]",–,–,155 °C,–
"Cc1c2c(c(C)c(-c3ccccc3)c1-c1ccccc1)C(=O)N(CCN(CCNC(=O)OC(C)(C)C)C(=O)OC(C)(C)C)C2=O [BP-22, Tert-Butyl (3-((tert-butoxycarbonyl)amino)ethyl)(2-(4,7-dimethyl-1,3-dioxo-5,6-diphenylisoindolin-2-yl)ethyl)carbamate]",–,–,202 to 205 °C,–
"CC(C)(C)OC(=O)N[C@@H](CCCCN1C(=O)C2C3(C)C(=O)C(C)(C(c4ccccc4)=C3c3ccccc3)C2(Br)C1=O)C(=O)O (stereo partly drawn) [oCOm-27, (2S)-2-tert-butoxycarbonylamino-6-(3a-bromo-4,7-dimethyl-1,3,8-trioxo-5,6-diphenyl-1,3,3a,4,7,7a-hexahydro-2H-4,7-methanoisoindol-2-yl) hexanoic acid]",–,–,87 to 92 °C,–
